Test results as given in patent US20260022142A1, “MACROCYCLIC IMMUNOMODULATORS” (Bristol-Myers Squibb Company, priority 2022, published 2026).
pIC50: −log10 of the molar value. Bridge positions count the residues as written; N and C are the ends. Square brackets hold non-standard residues; d marks the D form. Peptide text beside a SMILES is read from it. * marks the point of attachment. ξ: configuration not given here. Bip = N[C@@H](Cc1ccc(-c2ccccc2)cc1)C(=O)O; Phe(3-Me) = Cc1cccc(C[C@H](N)C(=O)O)c1; 3Pal = N[C@@H](Cc1cccnc1)C(=O)O; 4Pal = N[C@@H](Cc1ccncc1)C(=O)O; d2Pal = N[C@H](Cc1ccccn1)C(=O)O; Cha = N[C@@H](CC1CCCCC1)C(=O)O; Cit = NC(=O)NCCC[C@H](N)C(=O)O; Phg = N[C@H](C(=O)O)c1ccccc1; hCys = N[C@@H](CCS)C(=O)O; Carboxymethyl = O=C(O)C*; Orn = NCCC[C@H](N)C(=O)O; Aun = NCCCCCCCCCCC(=O)O; Dab = NCC[C@H](N)C(=O)O; Dap = NC[C@H](N)C(=O)O; ξT = CC(O)C(N)C(=O)O

Biological target: T1, PD-1/PD-L1 interaction (PE-labeled human PD-L1-Ig binding to Jurkat cell line over-expressing human PD-1) (Homo sapiens, UniProt Q15116)
T1 construct: expressed in transfected cells; host or cells: Jurkat
T1 sequence (Q15116 25-288): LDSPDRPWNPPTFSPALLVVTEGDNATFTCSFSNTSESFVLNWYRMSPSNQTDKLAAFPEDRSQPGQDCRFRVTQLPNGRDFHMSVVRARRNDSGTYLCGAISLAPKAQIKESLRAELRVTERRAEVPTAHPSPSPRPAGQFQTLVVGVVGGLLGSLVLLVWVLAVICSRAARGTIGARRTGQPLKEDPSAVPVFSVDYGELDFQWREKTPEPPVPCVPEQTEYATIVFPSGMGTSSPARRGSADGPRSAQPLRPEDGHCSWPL
Experiment: Jurkat-PD-1 Cell Binding High-Content Screening Assay (CBA)
Format: cell-based
Conditions: Jurkat cell line over-expressing human PD-1; PE-labeled PD-L1-Ig 20 nM final; read-out: Jurkat hPD1-PDL1 IC50
Summary of the method: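 First, compound is added to PD-1-expressing Jurkat cells in serum-containing DMEM and left 2 h at 37° C. Next, PE-conjugated PD-L1-Ig is introduced at 20 nM final concentration for 1 hour. Finally, cells are fixed in 4% paraformaldehyde with Hoechst 33342, washed and imaged.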

Row | Compound | pIC50
1 | Cc1cccc(C[C@@H]2NC(=O)[C@H](CC(=O)O)NC(=O)[C@H](Cc3ccc(OCC(=O)O)cc3)NC(=O)[C@H](CN)NC(=O)CSC[C@@H](C(=O)N[C@@H](CCN)C(=O)NCCCCCCCCCCC(=O)O)NC(=O)[C@@H](Cc3ccccn3)NC(=O)[C@H](C(C)C)NC(=O)[C@H](CC3CCCCC3)NC(=O)[C@H](CCN)NC(=O)[C@@H](CC(C)C)NC(=O)[C@H](CCCN)NC(=O)[C@H](Cc3ccc(O)cc3)NC(=O)[C@H](Cc3ccc(-c4ccccc4)cc3)NC(=O)[C@H](C(C)C)NC2=O)c1 [Compound 2764] ({CH2CO}-[Dap]Y(Carboxymethyl)D[Phe(3-Me)]V[Bip]Y[Orn][dL][Dab][Cha]V[d2Pal]C[Dab][Aun]-OH; thioether N-14) | 7.16
2 | Cc1cccc(C[C@@H]2NC(=O)[C@H](CC(=O)O)NC(=O)[C@H](Cc3ccc(OCC(=O)O)cc3)NC(=O)[C@H](CN)NC(=O)CSC[C@@H](C(=O)N[C@@H](CCN)C(=O)NCCCCCCCCCCC(=O)O)NC(=O)[C@H](Cc3cccnc3)NC(=O)[C@H](C(C)C)NC(=O)[C@H](CC(C)C)NC(=O)[C@H](CCN)NC(=O)[C@@H](CC(C)C)NC(=O)[C@H](CCCN)NC(=O)[C@H](Cc3ccc(O)cc3)NC(=O)[C@H](Cc3ccc(-c4ccccc4)cc3)NC(=O)[C@H](C(C)C)NC2=O)c1 [Compound 2765] ({CH2CO}-[Dap]Y(Carboxymethyl)D[Phe(3-Me)]V[Bip]Y[Orn][dL][Dab]LV[3Pal]C[Dab][Aun]-OH; thioether N-14) | 7.20
3 | Cc1cccc(C[C@@H]2NC(=O)[C@H](CC(=O)O)NC(=O)[C@H](Cc3ccc(OCC(=O)O)cc3)NC(=O)[C@H](CN)NC(=O)CSC[C@@H](C(=O)N[C@@H](CCN)C(=O)NCCCCCCCCCCC(=O)O)NC(=O)[C@@H](CCC(N)=O)NC(=O)[C@H](C(C)C)NC(=O)[C@H](CC3CCCCC3)NC(=O)[C@H](CCN)NC(=O)[C@@H](CC(C)C)NC(=O)[C@H](CCCN)NC(=O)[C@H](Cc3ccc(O)cc3)NC(=O)[C@H](Cc3ccc(-c4ccccc4)cc3)NC(=O)[C@H](CC(C)C)NC2=O)c1 [Compound 2769] ({CH2CO}-[Dap]Y(Carboxymethyl)D[Phe(3-Me)]L[Bip]Y[Orn][dL][Dab][Cha]V[dQ]C[Dab][Aun]-OH; thioether N-14) | 7.22
4 | Cc1cccc(C[C@@H]2NC(=O)[C@H](CC(=O)O)NC(=O)[C@H](Cc3ccc(OCC(=O)O)cc3)NC(=O)[C@H](CN)NC(=O)CSC[C@@H](C(=O)N[C@@H](CCN)C(=O)NCCCCCCCCCCC(=O)O)NC(=O)[C@H](c3ccccc3)NC(=O)[C@H](C(C)C)NC(=O)[C@H](CC(C)C)NC(=O)[C@H](CCN)NC(=O)[C@@H](CC(C)C)NC(=O)[C@H](CCCN)NC(=O)[C@H](Cc3ccc(O)cc3)NC(=O)[C@H](Cc3ccc(-c4ccccc4)cc3)NC(=O)[C@H](C(C)C)NC2=O)c1 [Compound 2772] ({CH2CO}-[Dap]Y(Carboxymethyl)D[Phe(3-Me)]V[Bip]Y[Orn][dL][Dab]LV[Phg]C[Dab][Aun]-OH; thioether N-14) | 7.17
5 | Cc1cccc(C[C@@H]2NC(=O)[C@H](CC(=O)O)NC(=O)[C@H](Cc3ccc(O)cc3)NC(=O)[C@H](CC(N)=O)NC(=O)CSC[C@@H](C(=O)N[C@@H](CCCN)C(=O)NCCCCCCCCCCC(=O)O)NC(=O)C(C(C)O)NC(=O)[C@H](C(C)C)NC(=O)[C@H](CC(C)C)NC(=O)[C@H](CCN)NC(=O)[C@@H](CC(C)C)NC(=O)[C@H](CCCN)NC(=O)[C@H](CCCNC(N)=O)NC(=O)[C@H](Cc3ccc(-c4ccccc4)cc3)NC(=O)[C@H](C(C)C)NC2=O)c1 (stereo partly drawn) [Compound 2774] ({CH2CO}-NYD[Phe(3-Me)]V[Bip][Cit][Orn][dL][Dab]LV[ξT]C[Orn][Aun]-OH; thioether N-14) | 7.14
6 | Cc1cccc(C[C@@H]2NC(=O)[C@H](CC(=O)O)NC(=O)[C@H](Cc3ccccc3)NC(=O)[C@H](CC(N)=O)NC(=O)CSCC[C@@H](C(=O)N[C@@H](CCCN)C(=O)NCCCCCCCCCCC(=O)O)NC(=O)[C@H](CCC(=O)O)NC(=O)[C@H](C(C)C)NC(=O)[C@H](CC(C)C)NC(=O)[C@H](CCN)NC(=O)[C@@H](CC(C)C)NC(=O)[C@H](CCCN)NC(=O)[C@H](CCCNC(N)=O)NC(=O)[C@H](Cc3ccc(-c4ccccc4)cc3)NC(=O)[C@H](C(C)C)NC2=O)c1 [Compound 2775] ({CH2CO}-NFD[Phe(3-Me)]V[Bip][Cit][Orn][dL][Dab]LVE[hCys][Orn][Aun]-OH; thioether N-14) | 6.76

These reach a higher pIC50. Values come first.

Row | pIC50 | Compound
7 | 7.25 | Cc1cccc(C[C@@H]2NC(=O)[C@H](CC(=O)O)NC(=O)[C@H](Cc3ccc(OCC(=O)O)cc3)NC(=O)[C@H](CN)NC(=O)CSC[C@@H](C(=O)N[C@@H](CCN)C(=O)NCCCCCCCCCCC(=O)O)NC(=O)[C@H](Cc3cccnc3)NC(=O)[C@H](C(C)C)NC(=O)[C@H](CC3CCCCC3)NC(=O)[C@H](CCN)NC(=O)[C@@H](CC(C)C)NC(=O)[C@H](CCCN)NC(=O)[C@H](Cc3ccc(O)cc3)NC(=O)[C@H](Cc3ccc(-c4ccccc4)cc3)NC(=O)[C@H](C(C)C)NC2=O)c1 [Compound 2766] ({CH2CO}-[Dap]Y(Carboxymethyl)D[Phe(3-Me)]V[Bip]Y[Orn][dL][Dab][Cha]V[3Pal]C[Dab][Aun]-OH; thioether N-14)
8 | 7.26 | Cc1cccc(C[C@@H]2NC(=O)[C@H](CC(=O)O)NC(=O)[C@H](Cc3ccc(OCC(=O)O)cc3)NC(=O)[C@H](CN)NC(=O)CSC[C@@H](C(=O)N[C@@H](CCN)C(=O)NCCCCCCCCCCC(=O)O)NC(=O)[C@H](Cc3ccncc3)NC(=O)[C@H](C(C)C)NC(=O)[C@H](CC3CCCCC3)NC(=O)[C@H](CCN)NC(=O)[C@@H](CC(C)C)NC(=O)[C@H](CCCN)NC(=O)[C@H](Cc3ccc(O)cc3)NC(=O)[C@H](Cc3ccc(-c4ccccc4)cc3)NC(=O)[C@H](C(C)C)NC2=O)c1 [Compound 2768] ({CH2CO}-[Dap]Y(Carboxymethyl)D[Phe(3-Me)]V[Bip]Y[Orn][dL][Dab][Cha]V[4Pal]C[Dab][Aun]-OH; thioether N-14)
9 | 7.27 | CC(C)C[C@H]1NC(=O)[C@H](CCCN)NC(=O)[C@H](C(C)C)NC(=O)[C@H](Cc2ccc(-c3ccccc3)cc2)NC(=O)[C@H](C(C)C)NC(=O)[C@H](Cc2c[nH]c3ccccc23)NC(=O)[C@H](CC(=O)O)NC(=O)[C@H](Cc2ccc(OCC(=O)O)cc2)NC(=O)[C@H](CN)NC(=O)CSC[C@@H](C(=O)N[C@@H](CCCN)C(=O)NCCCCCCCCCCC(=O)O)NC(=O)[C@H](CCC(=O)O)NC(=O)[C@H](C(C)C)NC(=O)[C@H](CC2CCCCC2)NC(=O)[C@H](Cc2c[nH]cn2)NC1=O [Compound 2776] ({CH2CO}-[Dap]Y(Carboxymethyl)DWV[Bip]V[Orn][dL]H[Cha]VEC[Orn][Aun]-OH; thioether N-14)
10 | 7.37 | Cc1cccc(C[C@@H]2NC(=O)[C@H](CC(=O)O)NC(=O)[C@H](Cc3ccc(OCC(=O)O)cc3)NC(=O)[C@H](CN)NC(=O)CSC[C@@H](C(=O)N[C@@H](CCN)C(=O)NCCCCCCCCCCC(=O)O)NC(=O)[C@H](Cc3ccncc3)NC(=O)[C@H](C(C)C)NC(=O)[C@H](CC(C)C)NC(=O)[C@H](CCN)NC(=O)[C@@H](CC(C)C)NC(=O)[C@H](CCCN)NC(=O)[C@H](Cc3ccc(O)cc3)NC(=O)[C@H](Cc3ccc(-c4ccccc4)cc3)NC(=O)[C@H](C(C)C)NC2=O)c1 [Compound 2767] ({CH2CO}-[Dap]Y(Carboxymethyl)D[Phe(3-Me)]V[Bip]Y[Orn][dL][Dab]LV[4Pal]C[Dab][Aun]-OH; thioether N-14)
11 | 7.40 | Cc1cccc(C[C@@H]2NC(=O)[C@H](CC(=O)O)NC(=O)[C@H](Cc3ccc(OCC(=O)O)cc3)NC(=O)[C@H](CN)NC(=O)CSC[C@@H](C(=O)N[C@@H](CCN)C(=O)NCCCCCCCCCCC(=O)O)NC(=O)[C@@H]([C@H](C)O)NC(=O)[C@H](C(C)C)NC(=O)[C@H](CC(C)C)NC(=O)[C@H](CCN)NC(=O)[C@@H](CC(C)C)NC(=O)[C@H](CCCN)NC(=O)[C@H](Cc3ccc(O)cc3)NC(=O)[C@H](Cc3ccc(-c4ccccc4)cc3)NC(=O)[C@H](C(C)C)NC2=O)c1 [Compound 2771] ({CH2CO}-[Dap]Y(Carboxymethyl)D[Phe(3-Me)]V[Bip]Y[Orn][dL][Dab]LV[dT]C[Dab][Aun]-OH; thioether N-14)
12 | 7.42 | Cc1cccc(C[C@@H]2NC(=O)[C@H](CC(=O)O)NC(=O)[C@H](Cc3ccc(OCC(=O)O)cc3)NC(=O)[C@H](CN)NC(=O)CSC[C@@H](C(=O)N[C@@H](CCN)C(=O)NCCCCCCCCCCC(=O)O)NC(=O)[C@@H](CCC(N)=O)NC(=O)[C@H](C(C)C)NC(=O)[C@H](CC(C)C)NC(=O)[C@H](CCN)NC(=O)[C@@H](CC(C)C)NC(=O)[C@H](CCCN)NC(=O)[C@H](Cc3ccc(O)cc3)NC(=O)[C@H](Cc3ccc(-c4ccccc4)cc3)NC(=O)[C@H](C(C)C)NC2=O)c1 [Compound 2770] ({CH2CO}-[Dap]Y(Carboxymethyl)D[Phe(3-Me)]V[Bip]Y[Orn][dL][Dab]LV[dQ]C[Dab][Aun]-OH; thioether N-14)
13 | 7.66 | Cc1cccc(C[C@@H]2NC(=O)[C@H](CC(=O)O)NC(=O)[C@H](Cc3ccc(O)cc3)NC(=O)[C@H](CC(N)=O)NC(=O)CSC[C@@H](C(=O)N[C@@H](CCN)C(=O)NCCCCCCCCCCC(=O)O)NC(=O)[C@H](CCC(=O)O)NC(=O)[C@H](C(C)C)NC(=O)[C@H](CC(C)C)NC(=O)[C@H](CCN)NC(=O)[C@@H](CC(C)C)NC(=O)[C@H](CCCN)NC(=O)[C@H](CCCNC(N)=O)NC(=O)[C@H](Cc3ccc(-c4ccccc4)cc3)NC(=O)[C@H](C(C)C)NC2=O)c1 [Compound 2773] ({CH2CO}-NYD[Phe(3-Me)]V[Bip][Cit][Orn][dL][Dab]LVEC[Dab][Aun]-OH; thioether N-14)
14 | 7.70 | Cc1cccc(C[C@@H]2NC(=O)[C@H](CC(=O)O)NC(=O)[C@H](Cc3ccc(OCC(=O)O)cc3)NC(=O)[C@H](CCCNC(=N)N)NC(=O)CSC[C@@H](C(=O)N[C@@H](CCN)C(=O)NCCCCCCCCCCC(=O)O)NC(=O)[C@H]([C@@H](C)O)NC(=O)[C@H](C(C)C)NC(=O)[C@H](CC3CCCCC3)NC(=O)[C@H](CCN)NC(=O)[C@@H](CC(C)C)NC(=O)[C@H](CCN)NC(=O)[C@H](CCCNC(N)=O)NC(=O)[C@H](Cc3ccc(-c4ccccc4)cc3)NC(=O)[C@H](C(C)C)NC2=O)c1 [Compound 2777] ({CH2CO}-RY(Carboxymethyl)D[Phe(3-Me)]V[Bip][Cit][Dab][dL][Dab][Cha]VTC[Dab][Aun]-OH; thioether N-14)
